Activity calls are given as the source filed them. The rule behind the calls is not given here.
Columns and labels:
Carbonic anhydrase 9 = Carbonic anhydrase 9 (Homo sapiens, UniProt Q16790); experiment: Inhibition of human carbonic anhydrase 9 after 15 mins by stopped flow CO2 hydration assay
Malme-3M = experiment: Growth inhibition of human MALME-3M cells at 10 uM after 48 hrs by sulforhodamine B assay; format: functional; details: read-out: GI
LOX IMVI = experiment: Growth inhibition of human LOXIMVI cells at 10 uM after 48 hrs by sulforhodamine B assay; format: functional; details: read-out: GI
U-251 = experiment: Growth inhibition of human U251 cells at 10 uM after 48 hrs by sulforhodamine B assay; format: functional
SNB-75 = experiment: Growth inhibition of human SNB75 cells at 10 uM after 48 hrs by sulforhodamine B assay; format: functional; details: SNB-75, 48 h, read-out: GI
SNB-19 = experiment: Growth inhibition of human SNB19 cells at 10 uM after 48 hrs by sulforhodamine B assay; format: functional
SF-539 = experiment: Growth inhibition of human SF539 cells at 10 uM after 48 hrs by sulforhodamine B assay; format: functional; details: SF-539, 48 h, read-out: GI
SF-295 = experiment: Growth inhibition of human SF295 cells at 10 uM after 48 hrs by sulforhodamine B assay; format: functional
SF-268 = experiment: Growth inhibition of human SF268 cells at 10 uM after 48 hrs by sulforhodamine B assay; format: functional; details: SF-268, 48 h, read-out: GI
KM12 = experiment: Growth inhibition of human KM12 cells at 10 uM after 48 hrs by sulforhodamine B assay; format: functional; details: KM12, 48 h, read-out: GI
SW-620 = experiment: Growth inhibition of human SW620 cells at 10 uM after 48 hrs by sulforhodamine B assay; format: functional
HT-29 = experiment: Growth inhibition of human HT-29 cells at 10 uM after 48 hrs by sulforhodamine B assay; format: functional
HCT-15 = experiment: Growth inhibition of human HCT15 cells at 10 uM after 48 hrs by sulforhodamine B assay; format: functional
HCT-116 = experiment: Growth inhibition of human HCT116 cells at 10 uM after 48 hrs by sulforhodamine B assay; format: functional; details: HCT-116, 48 h, read-out: GI
HCC 2998 = experiment: Growth inhibition of human HCC2998 cells at 10 uM after 48 hrs by sulforhodamine B assay; format: functional
COLO 205 = experiment: Growth inhibition of human COLO205 cells at 10 uM after 48 hrs by sulforhodamine B assay; format: functional
NCI-H522 = experiment: Growth inhibition of human NCI-H522 cells at 10 uM after 48 hrs by sulforhodamine B assay; format: functional
NCI-H460 = experiment: Growth inhibition of human NCI-H460 cells at 10 uM after 48 hrs by sulforhodamine B assay; format: functional
NCI-H322M = experiment: Growth inhibition of human NCI-H322M cells at 10 uM after 48 hrs by sulforhodamine B assay; format: functional
NCI-H23 = experiment: Growth inhibition of human NCI-H23 cells at 10 uM after 48 hrs by sulforhodamine B assay; format: functional; details: NCI-H23, 48 h, read-out: GI
NCI-H226 = experiment: Growth inhibition of human NCI-H226 cells at 10 uM after 48 hrs by sulforhodamine B assay; format: functional; details: NCI-H226, 48 h, read-out: GI
HOP-62 = experiment: Growth inhibition of human HOP62 cells at 10 uM after 48 hrs by sulforhodamine B assay; format: functional
EKVX = experiment: Growth inhibition of human EKVX cells at 10 uM after 48 hrs by sulforhodamine B assay; format: functional
A549 = experiment: Growth inhibition of human A549/ATCC cells at 10 uM after 48 hrs by sulforhodamine B assay; format: functional
SR = experiment: Growth inhibition of human SR cells at 10 uM after 48 hrs by sulforhodamine B assay; format: functional; details: read-out: GI
MOLT-4 = experiment: Growth inhibition of human MOLT4 cells at 10 uM after 48 hrs by sulforhodamine B assay; format: functional; details: MOLT-4, 48 h, read-out: GI
K562 = experiment: Growth inhibition of human K562 cells at 10 uM after 48 hrs by sulforhodamine B assay; format: functional; details: K562, 48 h, read-out: GI
HL-60(TB) = experiment: Growth inhibition of human HL-60(TB) cells at 10 uM after 48 hrs by sulforhodamine B assay; format: functional; details: HL-60, 48 h, read-out: GI
MDA-MB-468 = experiment: Growth inhibition of human MDA-MB-468 cells at 10 uM after 48 hrs by sulforhodamine B assay; format: functional
T47D = experiment: Growth inhibition of human T47D cells at 10 uM after 48 hrs by sulforhodamine B assay; format: functional
BT-549 = experiment: Growth inhibition of human BT549 cells at 10 uM after 48 hrs by sulforhodamine B assay; format: functional; details: BT-549, 48 h, read-out: GI
Hs-578T = experiment: Growth inhibition of human Hs 578T cells at 10 uM after 48 hrs by sulforhodamine B assay; format: functional
MDA-MB-231 = experiment: Growth inhibition of human MDA-MB-231 cells at 10 uM after 48 hrs by sulforhodamine B assay; format: functional
MCF7 = experiment: Growth inhibition of human MCF7 cells at 10 uM after 48 hrs by sulforhodamine B assay; format: functional
DU-145 = experiment: Growth inhibition of human DU145 cells at 10 uM after 48 hrs by sulforhodamine B assay; format: functional
UO-31 = experiment: Growth inhibition of human UO31 cells at 10 uM after 48 hrs by sulforhodamine B assay; format: functional; details: UO-31, 48 h, read-out: GI
TK-10 = experiment: Growth inhibition of human TK10 cells at 10 uM after 48 hrs by sulforhodamine B assay; format: functional
SN12C = experiment: Growth inhibition of human SN12C cells at 10 uM after 48 hrs by sulforhodamine B assay; format: functional
RXF 393 = experiment: Growth inhibition of human RXF393 cells at 10 uM after 48 hrs by sulforhodamine B assay; format: functional
CAKI-1 = experiment: Growth inhibition of human CAKI-1 cells at 10 uM after 48 hrs by sulforhodamine B assay; format: functional
ACHN = experiment: Growth inhibition of human ACHN cells at 10 uM after 48 hrs by sulforhodamine B assay; format: functional
A498 = experiment: Growth inhibition of human A498 cells at 10 uM after 48 hrs by sulforhodamine B assay; format: functional; details: A498, 48 h, read-out: GI
786-0 = experiment: Growth inhibition of human 786-0 cells at 10 uM after 48 hrs by sulforhodamine B assay; format: functional; details: 786-0, 48 h, read-out: GI
SK-OV-3 = experiment: Growth inhibition of human SKOV3 cells at 10 uM after 48 hrs by sulforhodamine B assay; format: functional
NCI/ADR-RES = experiment: Growth inhibition of human NCI-ADR-RES cells at 10 uM after 48 hrs by sulforhodamine B assay; format: functional
OVCAR-8 = experiment: Growth inhibition of human OVCAR8 cells at 10 uM after 48 hrs by sulforhodamine B assay; format: functional
OVCAR-5 = experiment: Growth inhibition of human OVCAR5 cells at 10 uM after 48 hrs by sulforhodamine B assay; format: functional
OVCAR-4 = experiment: Growth inhibition of human OVCAR4 cells at 10 uM after 48 hrs by sulforhodamine B assay; format: functional
OVCAR-3 = experiment: Growth inhibition of human OVCAR3 cells at 10 uM after 48 hrs by sulforhodamine B assay; format: functional
IGROV-1 = experiment: Growth inhibition of human IGROV1 cells at 10 uM after 48 hrs by sulforhodamine B assay; format: functional
UACC-62 = experiment: Growth inhibition of human UACC62 cells at 10 uM after 48 hrs by sulforhodamine B assay; format: functional
UACC-257 = experiment: Growth inhibition of human UACC257 cells at 10 uM after 48 hrs by sulforhodamine B assay; format: functional
SK-MEL-5 = experiment: Growth inhibition of human SK-MEL-5 cells at 10 uM after 48 hrs by sulforhodamine B assay; format: functional
SK-MEL-28 = experiment: Growth inhibition of human SK-MEL-28 cells at 10 uM after 48 hrs by sulforhodamine B assay; format: functional, cell-based
SK-MEL-2 = experiment: Growth inhibition of human SK-MEL-2 cells at 10 uM after 48 hrs by sulforhodamine B assay; format: functional
MDA-MB-435 = experiment: Growth inhibition of human MDA-MB-435 cells at 10 uM after 48 hrs by sulforhodamine B assay; format: functional
M14 = experiment: Growth inhibition of human M14 cells at 10 uM after 48 hrs by sulforhodamine B assay; format: functional; details: M14, 48 h, read-out: GI

Cc1cc(C)n(-c2ccncc2S(N)(=O)=O)n1
Ki (Carbonic anhydrase 9): 24.8 nM

CCOC(=O)CCc1c(C)nn(-c2ccncc2S(N)(=O)=O)c1C
Ki (Carbonic anhydrase 9): 19.5 nM

NS(=O)(=O)c1cnccc1N1CCN(Cc2ccccc2)CC1
inhibition of growth at 10 µM (Malme-3M): 1% | inhibition of growth at 10 µM (LOX IMVI): 4% | growth inhibition (GI) (U-251): inactive | inhibition of growth at 10 µM (SNB-75): 7% | growth inhibition (GI) (SNB-19): inactive | inhibition of growth at 10 µM (SF-539): 6% | growth inhibition (GI) (SF-295): inactive | inhibition of growth at 10 µM (SF-268): 3% | inhibition of growth at 10 µM (KM12): 1% | growth inhibition (GI) (SW-620): inactive | growth inhibition (GI) (HT-29): inactive | growth inhibition (GI) (HCT-15): inactive | inhibition of growth at 10 µM (HCT-116): 6% | growth inhibition (GI) (HCC 2998): inactive | growth inhibition (GI) (COLO 205): inactive | growth inhibition (GI) (NCI-H522): inactive | growth inhibition (GI) (NCI-H460): inactive | growth inhibition (GI) (NCI-H322M): inactive | inhibition of growth at 10 µM (NCI-H23): 1% | inhibition of growth at 10 µM (NCI-H226): 1% | growth inhibition (GI) (HOP-62): inactive | growth inhibition (GI) (EKVX): inactive | growth inhibition (GI) (A549): inactive | inhibition of growth at 10 µM (SR): 13% | inhibition of growth at 10 µM (MOLT-4): 5% | inhibition of growth at 10 µM (K562): 3% | inhibition of growth at 10 µM (HL-60(TB)): 8% | Ki (Carbonic anhydrase 9): 45.1 nM | growth inhibition (GI) (MDA-MB-468): inactive | growth inhibition (GI) (T47D): inactive | inhibition of growth at 10 µM (BT-549): 9% | growth inhibition (GI) (Hs-578T): inactive | growth inhibition (GI) (MDA-MB-231): inactive | growth inhibition (GI) (MCF7): inactive | growth inhibition (GI) (DU-145): inactive | inhibition of growth at 10 µM (UO-31): 14% | growth inhibition (GI) (TK-10): inactive | growth inhibition (GI) (SN12C): inactive | growth inhibition (GI) (RXF 393): inactive | growth inhibition (GI) (CAKI-1): inactive | growth inhibition (GI) (ACHN): inactive | inhibition of growth at 10 µM (A498): 5% | inhibition of growth at 10 µM (786-0): 6% | growth inhibition (GI) (SK-OV-3): inactive | growth inhibition (GI) (NCI/ADR-RES): inactive | growth inhibition (GI) (OVCAR-8): inactive | growth inhibition (GI) (OVCAR-5): inactive | growth inhibition (GI) (OVCAR-4): inactive | growth inhibition (GI) (OVCAR-3): inactive | growth inhibition (GI) (IGROV-1): inactive | growth inhibition (GI) (UACC-62): inactive | growth inhibition (GI) (UACC-257): inactive | growth inhibition (GI) (SK-MEL-5): inactive | growth inhibition (GI) (SK-MEL-28): inactive | growth inhibition (GI) (SK-MEL-2): inactive | growth inhibition (GI) (MDA-MB-435): inactive | inhibition of growth at 10 µM (M14): 2%
